{"source": "patent US20120142690A1", "about": "“Substituted piperidines” (BAYER PHARMA AKTIENGESELLSCHAFT, priority 2009, published 2012)", "data": [{"molecular_target": "T1, human protease activated receptor 1 (PAR-1) (Homo sapiens, UniProt P25116)", "T1 construct": "the cell stably expresses the endogenous human PAR-1 receptor; endogenous in cells; host or cells: HEK293-derived recombinant cell line that constitutively expresses mitochondrial aequorin", "T1 sequence (P25116 22-425)": "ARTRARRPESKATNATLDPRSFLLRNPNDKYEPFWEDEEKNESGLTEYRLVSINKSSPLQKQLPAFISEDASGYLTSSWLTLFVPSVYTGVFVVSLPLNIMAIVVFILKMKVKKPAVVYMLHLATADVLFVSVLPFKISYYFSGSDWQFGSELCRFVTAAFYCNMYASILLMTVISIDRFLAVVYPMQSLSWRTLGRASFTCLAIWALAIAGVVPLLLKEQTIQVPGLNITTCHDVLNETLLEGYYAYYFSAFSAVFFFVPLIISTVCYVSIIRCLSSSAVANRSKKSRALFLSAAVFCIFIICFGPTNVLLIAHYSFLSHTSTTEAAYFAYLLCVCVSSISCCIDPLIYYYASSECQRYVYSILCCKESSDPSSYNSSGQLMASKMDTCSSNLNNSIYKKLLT", "test": "Cellular functional in vitro test (aequorin luminescence, PAR-1 test cell)", "assay_type": "cell-based", "conditions": "recombinant HEK293-derived cell line expressing aequorin; PAR-1 agonist at EC50; calcium-dependent luminescence", "source_text": "1.a) Cellular Functional In Vitro Test\nA recombinant cell line is used to identify antagonists of the human protease activated receptor 1 (PAR-1) and to quantify the activity of the substances described herein. The cell is originally derived from a human embryonal kidney cell (HEK293; ATCC: American Type Culture Collection, Manassas, Va. 20108, USA). The test cell line constitutively expresses a modified form of the calcium-sensitive photoprotein acquorin which, after reconstitution with the cofactor coelenterazine, emits light when the free calcium concentration in the inner mitochondrial compartment is increased (Rizzuto R, Simpson A W, Brini M, Pozzan T.; Nature 1992, 358, 325-327). Additionally, the cell stably expresses the endogenous human PAR-1 receptor and the endogenous purinergic receptor P2Y2. The resulting PAR-1 test cell responds to stimulation of the endogenous PAR-1 or P2Y2 receptor with an intracellular release of calcium ions, which can be quantified through the resulting acquorin luminescence with a suitable luminometer (Milligan G, Marshall F, Rees S, Trends in Pharmacological Sciences 1996, 17, 235-237). […]\nTest procedure: The cells are plated out two days (48 h) before the test in culture medium (DMEM F12, supplemented with 10% FCS, 2 mM glutamine, 20 mM HEPES, 1.4 mM pyruvate, 0.1 mg/ml gentamycin, 0.15% Na bicarbonate; BioWhittaker Cat.#BE04-687Q; B-4800 Verviers, Belgium) in 384-well microtitre plates and kept in a cell incubator (96% atmospheric humidity, 5% v/v CO2, 37° C.). […] The test substances are then pipetted onto the microtitre plate, and 5 minutes after the transfer of the test substances into the wells of the microtitre plate the plate is transferred into the luminometer, a PAR-1 agonist concentration which corresponds to EC50 is added and the resulting light signal is immediately measured in the luminometer. To distinguish an antagonist substance action from a toxic action, the endogenous purinergic receptor is immediately subsequently activated with agonist (ATP, final concentration 10 μM) and the resulting light signal is measured.", "units": {"IC50": "nM"}, "values": [{"smiles": "COc1ccccc1-c1ccc(/C=C/C2CC(c3ccc(C(F)(F)F)cc3)CN(C(=O)N3CCOCC3)C2)nc1", "note": "(racemic) [Example 7, (3-{(E)-2-[5-(2-Methoxyphenyl)pyridin-2-yl]vinyl}-5-[4-(trifluoromethyl)phenyl]piperidin-1-yl)-(morpholin-4-yl)methanone]", "IC50": 1.9}, {"smiles": "O=C(N1CCOCC1)N1CC(/C=C/c2ccc(-c3cccc(Cl)c3)cn2)CC(c2ccc(C(F)(F)F)cc2)C1", "note": "(racemic) [Example 9, (3-{(E)-2-[5-(3-Chlorophenyl)pyridin-2-yl]vinyl}-5-[4-(trifluoromethyl)phenyl]piperidin-1-yl)-(morpholin-4-yl)methanone]", "IC50": 2.2}, {"smiles": "O=C(N1CCOCC1)N1CC(/C=C/c2ccc(-c3cccc(C(F)(F)F)c3)cn2)CC(c2ccc(C(F)(F)F)cc2)C1", "note": "(single isomer, unassigned) [Example 5, Morpholin-4-yl{3-[4-(trifluoromethyl)phenyl]-5-[(E)-2-{5-[3-(trifluoromethyl)phenyl]pyridin-2-yl}vinyl]piperidin-1-yl}methanone]", "IC50": 2}]}]}
